Patent US20130189347A1, “DISEASE TREATMENT DRUG” (priority 2010, published 2013)

Tests used:
[1] = system: B16 melanoma cells; assay: End-stage cancer: rate of increase in tumor volume in B16 melanoma-transplanted mice; format: in vivo, C57BL/6CrSlC mice
Method: iron porphyrin complex/pH-sensitive liposomes (5 mM/36 mM) and iron porphyrin complex/DPPC-PEG liposomes (5 mM/36 mM) were used […]
(§1) B16 melanoma cells were used.
(§2) Anchoring of the cancer was confirmed on the 10th day after cancer cell transplantation. The mice were separated into five mice each for the required number of groups (four groups: three groups for the sample drugs and one control group). At the same time, the short diameter and the long diameter of the cancer cell volume in each mouse were measured every two days using calipers. The following equation was calculated:
(§3) [tumor volume]=½×[long diameter]×[short diameter]^2

[2] = End-stage cancer experiment: weight fluctuation, death and side effects
Method: Five female, six-week-old C57BL/6CrSlC mice were assigned per group.
B16 melanoma dispersed in phosphate buffered saline (PBS) was injected into the foot pads (sole) of the mice (C57BL/6, female, six-weeks-old), and cancer was transplanted. The amount of cancer cells injected was 1×10^6/mouse/0.05 ml. The site of injection was within the limited area of the foot pad, in an environment where numerous fine blood vessels, such as capillaries, are present.
In addition, administration of the sample drugs (administered amount: 0.1 ml/mouse/dose) was started on the 13th day after cancer cell transplantation. Drug administration was conducted a total of four times, via tail vein every four days. The weight of each mouse was measured every two days.

[3] = system: B16 melanoma cells; assay: Early-stage cancer: rate of increase in tumor volume in B16 melanoma-transplanted mice; format: in vivo, ICR mice; details: CDDP 0.9 mM, 0.2 ml/mouse/dose via tail vein
Method: Five female, six-week-old IRC mice were assigned per group.
iron porphyrin complex/PLLA60wt%-F88 micelles (polymer capsule, 5 mM/0.7 wt %) were used.
As the sample drug (concentration) of the comparative example, CDDP (0.9 mM) was used.
as §1
The amount of cancer cells injected was 1×10^5/mouse/0.05 ml, which is 1/10 that for end-stage cancer.
as §2, with “(three” for “(four”, “two” for “three”
as §3

Compound	observation of the transplanted foot [1]	course of tumor volume ([1]; four days after administration of the drug)	mice that died ([2]; during 20 days of observation, five mice per group, MMC 0.9 mM, 0.5 mM)	weight increase and decrease (weight fluctuation) ([2]; end-stage cancer, weight measured every two days, FIG. 5)	suppression of increase in tumor volume [3]
CO[C@@]12[C@H](COC(N)=O)C3=C(C(=O)C(C)=C(N)C3=O)N1C[C@@H]1N[C@@H]12 [MMC, mitomycin]	necrosis occurred in the foot itself	sudden increase in tumor volume	two	severe weight fluctuations	–
[NH2][Pt]([NH2])([Cl])[Cl] [CDDP, Cisplatin]	–	–	–	–	about ten
